Reference: patent US20070298105A1, “METHODS OF TREATING CONDITIONS BY SUSTAINED RELEASE ADMINISTRATION OF BENZIMIDAZOLE DERIVATIVES” (priority 2006, published 2007)
Read-outs that look alike come from different tables or passages of the source.

How the values were obtained:
intragastric pH = assay: Colonic intubation study: intragastric pH profile (percent of time with pH >4); format: in vivo, human
Experimental: A single-dose, open-label, partially randomized, five-treatment, five-period, crossover pilot study was performed in healthy males to determine relative pharmacokinetics of rabeprazole, and comparators when dosed either orally or colonically. The study was a single dose study with blood sampling up to 24 hours following initiation.
Treatments A and B were rabeprazole sodium solution dosed to provide 30 and 60 mg, respectively, over 20 hours in the transverse colon of the subjects. Colonic dosing occurred using a nasoenteral tube. Treatment C was a single 20 mg dose of rabeprazole sodium oral enteric coated tablets dosed orally. Treatment D was placebo (200 mL of water) dosed orally.
The intragastric pH profile was analyzed based on the percentage of time that the intragastric pH was above 4, which was calculated for the full 24 hours. In addition, the mean pH value over 5 time intervals of 6 hours each during the 30-hr sampling time was also estimated.

[1] = Colonic intubation study: plasma pharmacokinetics of rabeprazole and esomeprazole; format: in vivo, human; details: for AUC(0-inf): read-out: AUCinf (mean)
Experimental: A single-dose, open-label, partially randomized, five-treatment, five-period, crossover pilot study was performed in healthy males to determine relative pharmacokinetics of rabeprazole, and comparators when dosed either orally or colonically. The study was a single dose study with blood sampling up to 24 hours following initiation. […] Colonic dosing occurred using a nasoenteral tube. Treatment C was a single 20 mg dose of rabeprazole sodium oral enteric coated tablets dosed orally. Treatment D was placebo (200 mL of water) dosed orally. […] For subjects whose apparent elimination rate constant [k] could not be properly determined, the AUC to infinity [AUCinf]) was calculated based on the median apparent elimination constant [k] of the subjects with available t1/2 values in the same treatment period. […] The intragastric pH profile were determined.

[2] = male, human, plasma, other: colonic (nasoenteral tube into the transverse colon), 30 mg, TRT A: rabeprazole 30 mg solution in the colon over 20 hours, N = 19
[3] = male, human, plasma, other: colonic (nasoenteral tube into the transverse colon), 30 mg, TRT A: rabeprazole 30 mg solution in the colon over 20 hours, subset N = 14
[4] = male, human, plasma, other: colonic (nasoenteral tube into the transverse colon), 60 mg, TRT B: rabeprazole 60 mg solution in the colon over 20 hours, N = 19
[5] = male, human, plasma, other: colonic (nasoenteral tube into the transverse colon), 60 mg, TRT B: rabeprazole 60 mg solution in the colon over 20 hours, subset N = 14
[6] = male, human, plasma, po, 20 mg, TRT C: rabeprazole 20 mg oral tablet, N = 19
[7] = male, human, plasma, po, 20 mg, TRT C: rabeprazole 20 mg oral tablet, subset N = 14

Compound: COCCCOc1ccnc(C[S+]([O-])c2nc3ccccc3[nH]2)c1C (centres unmarked) [Rabeprazole, 2-[[[4-(3-methoxypropoxy)-3-methyl-2-pyridinyl]-methyl]sulfinyl]-1H-benzimidazole]
- Mean percent of time with pH >4 (intragastric pH; 0-6 hr (10 am-4 pm), TRT A: rabeprazole 30 mg solution in the colon, N = 19): 30.6%
- Mean percent of time with pH >4 (intragastric pH; 0-6 hr (10 am-4 pm), TRT B: rabeprazole 60 mg solution in the colon, N = 19): 32.6%
- Mean percent of time with pH >4 (intragastric pH; 0-6 hr (10 am-4 pm), TRT B: rabeprazole 60 mg solution in the colon, subset N = 14): 34.6%
- Mean percent of time with pH >4 (intragastric pH; 0-6 hr (10 am-4 pm), TRT C: rabeprazole 20 mg oral tablet, N = 19): 31.1%
- Mean percent of time with pH >4 (intragastric pH; 0-6 hr (10 am-4 pm), TRT C: rabeprazole 20 mg oral tablet, subset N = 14): 29.1%
- Mean percent of time with pH >4 (intragastric pH; 6-12 hr (4 pm-10 pm), TRT A: rabeprazole 30 mg solution in the colon, N = 19): 37.9%
- Mean percent of time with pH >4 (intragastric pH; 6-12 hr (4 pm-10 pm), TRT B: rabeprazole 60 mg solution in the colon, N = 19): 50.5%
- Mean percent of time with pH >4 (intragastric pH; 6-12 hr (4 pm-10 pm), TRT B: rabeprazole 60 mg solution in the colon, subset N = 14): 55.8%
- Mean percent of time with pH >4 (intragastric pH; 6-12 hr (4 pm-10 pm), TRT C: rabeprazole 20 mg oral tablet, N = 19): 60.9%
- Mean percent of time with pH >4 (intragastric pH; 6-12 hr (4 pm-10 pm), TRT C: rabeprazole 20 mg oral tablet, subset N = 14): 63.6%
- Mean percent of time with pH >4 (intragastric pH; 12-18 hr (10 pm-4 am), TRT A: rabeprazole 30 mg solution in the colon, N = 19): 23.2%
- Mean percent of time with pH >4 (intragastric pH; 12-18 hr (10 pm-4 am), TRT B: rabeprazole 60 mg solution in the colon, N = 19): 34.3%
- Mean percent of time with pH >4 (intragastric pH; 12-18 hr (10 pm-4 am), TRT B: rabeprazole 60 mg solution in the colon, subset N = 14): 39.9%
- Mean percent of time with pH >4 (intragastric pH; 12-18 hr (10 pm-4 am), TRT C: rabeprazole 20 mg oral tablet, N = 19): 25.9%
- Mean percent of time with pH >4 (intragastric pH; 12-18 hr (10 pm-4 am), TRT C: rabeprazole 20 mg oral tablet, subset N = 14): 26.7%
- Mean percent of time with pH >4 (intragastric pH; 18-24 hr (4 am-10 am), TRT A: rabeprazole 30 mg solution in the colon, N = 19): 47.2%
- Mean percent of time with pH >4 (intragastric pH; 18-24 hr (4 am-10 am), TRT B: rabeprazole 60 mg solution in the colon, N = 19): 64.0%
- Mean percent of time with pH >4 (intragastric pH; 18-24 hr (4 am-10 am), TRT B: rabeprazole 60 mg solution in the colon, subset N = 14): 68.9%
- Mean percent of time with pH >4 (intragastric pH; 18-24 hr (4 am-10 am), TRT C: rabeprazole 20 mg oral tablet, N = 19): 37.8%
- Mean percent of time with pH >4 (intragastric pH; 18-24 hr (4 am-10 am), TRT C: rabeprazole 20 mg oral tablet, subset N = 14): 35.4%
- Mean percent of time with pH >4 (intragastric pH; 24-30 hr (10 am-4 pm), TRT A: rabeprazole 30 mg solution in the colon, N = 19): 45.4%
- Mean percent of time with pH >4 (intragastric pH; 24-30 hr (10 am-4 pm), TRT B: rabeprazole 60 mg solution in the colon, N = 19): 64.4%
- Mean percent of time with pH >4 (intragastric pH; 24-30 hr (10 am-4 pm), TRT B: rabeprazole 60 mg solution in the colon, subset N = 14): 72.0%
- Mean percent of time with pH >4 (intragastric pH; 24-30 hr (10 am-4 pm), TRT C: rabeprazole 20 mg oral tablet, N = 19): 43.6%
- Mean percent of time with pH >4 (intragastric pH; 24-30 hr (10 am-4 pm), TRT C: rabeprazole 20 mg oral tablet, subset N = 14): 45.4%
- Mean percent of time with pH >4 (intragastric pH; 24-hr average, TRT A: rabeprazole 30 mg solution in the colon, N = 19): 34.7%
- Mean percent of time with pH >4 (intragastric pH; 24-hr average, TRT A: rabeprazole 30 mg solution in the colon, N = 19, listed as rabeprazole): 35%
- Mean percent of time with pH >4 (intragastric pH; 24-hr average, TRT B: rabeprazole 60 mg solution in the colon, N = 19): 44.9%
- Mean percent of time with pH >4 (intragastric pH; 24-hr average, TRT B: rabeprazole 60 mg solution in the colon, N = 19, listed as rabeprazole): 45%
- Mean percent of time with pH >4 (intragastric pH; 24-hr average, TRT B: rabeprazole 60 mg solution in the colon, subset N = 14): 49.2%
- Mean percent of time with pH >4 (intragastric pH; 24-hr average, TRT C: rabeprazole 20 mg oral tablet, N = 19): 38.9%
- Mean percent of time with pH >4 (intragastric pH; 24-hr average, TRT C: rabeprazole 20 mg oral tablet, N = 19, listed as rabeprazole): 39%
- Mean percent of time with pH >4 (intragastric pH; 24-hr average, TRT C: rabeprazole 20 mg oral tablet, subset N = 14): 38.7%
- dose dependence of percentage of time with pH >4 (intragastric pH; 30 and 60 mg colonic rabeprazole treatments, 6-12 h period and beyond): dose-dependent increase
- effect on percentage of time with pH >4 compared to placebo (intragastric pH; first 6 hours of treatment, rabeprazole Treatments A, B and C): not significantly different from placebo
- gastric pH control compared with rabeprazole 20 mg tablet (intragastric pH; rabeprazole 60 mg colonic treatment, especially during the night-time period (12-30 hr)): better gastric pH control
- dose proportionality of mean Cmax and AUC ([1]; 30 mg and 60 mg colonic treatments): increased approximately dose proportionally
- Tmax ([1]; male, human, plasma, other: colonic (nasoenteral tube into the transverse colon), 30 mg, 30 mg rabeprazole colonic solution treatment, after start of treatment (colon infusion ended at 20 hr), read-out: median Tmax): ~18 h
- AUC(0-t) [1, 2]: 287 ng·h/mL
- AUC(0-inf) [1, 2]: 332 ng·h/mL
- Tmax ([1]; male, human, plasma, other: colonic (nasoenteral tube into the transverse colon), 30 mg, TRT A: rabeprazole 30 mg solution in the colon over 20 hours, N = 19, read-out: Tmax (median)): 18 h
- half-life ([1]; male, human, plasma, other: colonic (nasoenteral tube into the transverse colon), 30 mg, TRT A: rabeprazole 30 mg solution in the colon over 20 hours, N = 19, read-out: t1/2 (median) (converted)): 2 h
- Cmax ([1]; male, human, plasma, other: colonic (nasoenteral tube into the transverse colon), 30 mg, TRT A: rabeprazole 30 mg solution in the colon over 20 hours, single dose, healthy males, N = 19): 18 ng/mL
- AUC(0-t) [1, 3]: 290 ng·h/mL
- AUC(0-inf) [1, 3]: 343 ng·h/mL
- half-life ([1]; male, human, plasma, other: colonic (nasoenteral tube into the transverse colon), 30 mg, TRT A: rabeprazole 30 mg solution in the colon over 20 hours, subset N = 14, read-out: t1/2 (median) (converted)): 2 h
- Tmax ([1]; male, human, plasma, other: colonic (nasoenteral tube into the transverse colon), 60 mg, 60 mg rabeprazole colonic solution treatment, after start of treatment (colon infusion ended at 20 hr), read-out: median Tmax): ~18 h
- AUC(0-t) [1, 4]: 549 ng·h/mL
- AUC(0-inf) [1, 4]: 599 ng·h/mL
- Tmax ([1]; male, human, plasma, other: colonic (nasoenteral tube into the transverse colon), 60 mg, TRT B: rabeprazole 60 mg solution in the colon over 20 hours, N = 19, read-out: Tmax (median)): 18 h
- half-life ([1]; male, human, plasma, other: colonic (nasoenteral tube into the transverse colon), 60 mg, TRT B: rabeprazole 60 mg solution in the colon over 20 hours, N = 19, read-out: t1/2 (median) (converted)): 1.9 h
- Cmax ([1]; male, human, plasma, other: colonic (nasoenteral tube into the transverse colon), 60 mg, TRT B: rabeprazole 60 mg solution in the colon over 20 hours, single dose, healthy males, N = 19): 38.4 ng/mL
- AUC(0-t) [1, 5]: 586 ng·h/mL
- AUC(0-inf) [1, 5]: 646 ng·h/mL
- half-life ([1]; male, human, plasma, other: colonic (nasoenteral tube into the transverse colon), 60 mg, TRT B: rabeprazole 60 mg solution in the colon over 20 hours, subset N = 14, read-out: t1/2 (median) (converted)): 2.1 h
- half-life ([1]; male, human, plasma, other: colonic (nasoenteral tube into the transverse colon), rabeprazole following colonic treatment, read-out: median plasma half-life (converted)): ~2 h
- bioavailability ([1]; male, human, plasma, other: colonic (nasoenteral tube into the transverse colon), colonic treatment compared to oral tablets, dose-normalized basis, read-out: percent relative bioavailability (colonic bioavailability)): ~40%
- Cmax ([1]; male, human, plasma, other: colonic (transverse colon, via nasoenteral tube), 30 mg, TRT A: rabeprazole 30 mg solution in the colon over 20 hours, subset N = 14): 18.7 ng/mL
- Tmax ([1]; male, human, plasma, other: colonic (transverse colon, via nasoenteral tube), 30 mg, TRT A: rabeprazole 30 mg solution in the colon over 20 hours, subset N = 14, read-out: Tmax (median)): 18 h
- Cmax ([1]; male, human, plasma, other: colonic (transverse colon, via nasoenteral tube), 60 mg, TRT B: rabeprazole 60 mg solution in the colon over 20 hours, subset N = 14): 43.7 ng/mL
- Tmax ([1]; male, human, plasma, other: colonic (transverse colon, via nasoenteral tube), 60 mg, TRT B: rabeprazole 60 mg solution in the colon over 20 hours, subset N = 14, read-out: Tmax (median)): 18 h
- Tmax ([1]; male, human, plasma, po, 20 mg, 20 mg rabeprazole oral tablet treatment, read-out: median Tmax): 4.5 to 6 h
- AUC(0-t) [1, 6]: 534 ng·h/mL
- AUC(0-inf) [1, 6]: 603 ng·h/mL
- Tmax ([1]; male, human, plasma, po, 20 mg, TRT C: rabeprazole 20 mg oral tablet, N = 19, read-out: Tmax (median)): 4.5 h
- half-life ([1]; male, human, plasma, po, 20 mg, TRT C: rabeprazole 20 mg oral tablet, N = 19, read-out: t1/2 (median) (converted)): 0.96 h
- Cmax ([1]; male, human, plasma, po, 20 mg, TRT C: rabeprazole 20 mg oral tablet, single dose, healthy males, N = 19): 239 ng/mL
- AUC(0-t) [1, 7]: 619 ng·h/mL
- Cmax [1, 7]: 267 ng/mL
- AUC(0-inf) [1, 7]: 697 ng·h/mL
- Tmax ([1]; male, human, plasma, po, 20 mg, TRT C: rabeprazole 20 mg oral tablet, subset N = 14, read-out: Tmax (median)): 6 h
- half-life ([1]; male, human, plasma, po, 20 mg, TRT C: rabeprazole 20 mg oral tablet, subset N = 14, read-out: t1/2 (median) (converted)): 1 h
- half-life ([1]; male, human, plasma, po, 20 mg, rabeprazole following oral administration, read-out: median plasma half-life (converted)): ~1 h
- AUC compared with 20 mg oral tablet ([1]; rabeprazole 60 mg colonic treatment): comparable AUC
